The subject of data set [1] is durch Aconitin-Infusion induzierte Herzrhythmusstörungen. As to the kind of experiment: Inhibition of aconitine-infusion-induced cardiac arrhythmias in rats (method of Raschak). The data set is classed as in vivo, Ratte. The note with it: Rattus norvegicus, po, 3 h. From the text:
(§1) Beschreibung der pharmakologischen Versuchsmethoden: • 1. Bestimmung der akuten 7-Tage-Toxizität in Mausen. Die akute Toxizität der Wirkstoffe wird in männlichen NMRI-Mäusen (Körpergewicht 18-22 g) nach einmaliger p.o.-Applikation bestimmt. Die LD50 wird als die Dosis in uMol/kg definiert, welcher eine 50 % Mortalität der Tiere am 7. Tag nach der Applikation entspricht. Die LD50-Werte werden durch eine Probit-Analyse errechnet. • 2. Bestimmung der Hemmwirkung der Substanzen auf durch Aconitin-Infusion induzierte Herzrhythmusstörungen in Ratten.
Die Hemmwirkung auf durch Aconitin-Infusion in Ratten verursachte Herzrhythmusstörungcn (Extrasystolen (ES), ventrikuläre Tachykardie (VT) und Kammerflattern (KF)) werden nach der Methode von Raschak (Arzneimittelforsch. 25 (1975), 639-641) bestimmt.
Männliche Ratten mit einem Körpergewicht von 320-400 g werden durch i.p. Applikation von 1,25 g/kg Urethan narkotisiert. Die Tiere werden auf den Rücken gelegt und ihr Elektrokardiogramm wird während des Versuches alle 30 Sekunden gemessen. Den Tieren wird eine i.v. Aconitin-Infusion mit einer Infusionsgeschwindigkeit von 5 µg/kg/min Aconitin und einem Infusionsvolumen von 0,1 ml/min verabreicht. Drei Stunden vor Beginn der Aconitin-Infusion werden den Tieren die Testsubstanzen p.o. in einer Menge von 2 ml/kg Körpergewicht 2%-iger Tylose-Lösung verabreicht. Einer Kontrollgruppe wird nur die Tylose-Lösung verabreicht. Die Infusionsdauer bis zum Auftreten der verschiedenen Herzrhythmusstörungen wird bestimmt.
Antiarrhythmisch wirksame Testverbindungen führen zu einer Verzögerung des Auftretens der Aconitin-induzierten Herzrhythmusstörungen in den behandelten Tieren im Vergleich zu den Kontrolltieren. Aus dem Ausmaß der Verlängerung der Aconitininfusionsdauer und somit der Erhöhung der verabreichten Aconitinmenge, bis zu welcher die Tiere gegen die durch Aconitin induzierten Herzrhythmusstörungen geschützt sind, läßt sich auf die Stärke der antiarrhythmischen Wirksamkeit der Testsubstanzen schließen. Als ED150 wird die Dosis der Testsubstanzen bestimmt, bei welcher die jeweiligen Herzrhythmusstörungen erst nach der Verlängerung der Aconitinfusionsdauer auf 150 % auftreten.

Data set [2] relates to ADP-induzierter Plättchenaggregation in PRP-K. The experiment in a line: Inhibition of ADP-induced platelet aggregation in platelet-rich rabbit plasma (PRP/K), method of Born. The data set is classed as cell-based, Kaninchen. The note with it: Oryctolagus cuniculus, 10-6 Mol/l ADP, read-out: % Hemmwirkung gegenüber ADP-induzierter Plättchenaggregation in PRP-K. The source says: 3. Bestimmung der Hemmwirkung auf durch ADP induzierte Blutplättchenaggregation im blutplättchenreichen Kaninchenblutplasma (PRP/K).
Die in-vitro-Bestimmung der antiaggregatorischen Wirkungen der Substanzen wurde nach der Methode von Born (Nature 194, 927 (1962)), modifiziert für Mikrobestimmungen nach Sim et al (Thromb. Res. 1, 655 (1975)) durchgeführt.
PRP/K wird durch Zentrifugieren von mit Antikoagulanz versetztem Kaninchenblut auf bekannte Weise erhalten. Als Kontrollwerte für die photometrische Bestimmung der Aggregationshemmung werden die optische Dichte des unbehandelten PRP/K (^ß0 % Aggregation) und von PRP/K, in welchem Blutplättchenaggregation durch Behandlung von 10-^6 Mol/1 ? ADP erzeugt wurde (100 % Aggregation), gemessen.
Zur Bestimmung der aggregationshemmmenden Wirkungen der Wirkstoffe werden Proben PRP/K mit einer bestimmten Wirkstoffdosis versetzt und dann mit 10-^6 Mol/1 ADP behandelt. Die Verringerung der optischen Dichte gegenüber der des unbehandelten PRP/K wird gemessen und mit der bei der Behandlung von wirkstoffreiem PRP/K mit 10-^6 Mol/l ADP aufgetretenen optischen Dichteverringerung verglichen. Hieraus wird die durch die eingesetzte Wirkstoffdosis entfaltete Hemmwirkung in % Hemmung der in wirkstoffreiem PRP/K verursachten Aggregation berechnet. Die in diesem Test mit Wirkstoffen der Formel I erhaltenen Ergebnisse werden in der nachstehenden Tabelle II wiedergegeben. Die folgenden Tabellen I und II geben nach den vorstehend beschriebenen Testmethoden erhaltene Ergebnisse wieder. Die für die Verbindungen der Formel I angegebenen Beispielsnummern beziehen sich auf die nachstehenden Herstellungsbeispiele.

Data set [3] is described as follows: Acute 7-day toxicity in mice after a single p.o. dose. The note with it: in vivo, po, mouse (male NMRI), 50 % mortality on day 7, probit analysis, read-out: Toxizität LD50. On the set-up: species or system Maus.
Text: as §1

Setting [4] is: read-out: Hemmwirkung gegenüber aconotininduzierten Herzrhythmusstörungen ED150 ES.
[5] abbreviates: read-out: Hemmwirkung gegenüber aconotininduzierten Herzrhythmusstörungen ED150 KF.
Where [6] appears, read: read-out: Hemmwirkung gegenüber aconotininduzierten Herzrhythmusstörungen ED150 VT.

Structures are written as SMILES. Where two headings read alike, the source gives them in different places.

Consider `CCC1C2CC3C4N(C)c5c(Br)cc(Br)cc5C45CC(C2C5O)[N+]3(CCN2CCOCC2)C1O` (stereo not shown) [Beispiel 62], for which the ED150 was 11 µmol/kg in data set [1] (setting [4]), 13 µmol/kg in data set [1] (setting [5]) and 11 µmol/kg in data set [1] (setting [6]). The inhibition at 100 µg/mL in data set [2] worked out at 100%. For the same compound, in data set [3], the 50% lethal dose (LD50) (as a rule, the dose at which mortality reaches 50%) at 168 h came to 379 µmol/kg.
As for `CCC1C2CC3C4N(C)c5c(Br)cc(Br)cc5C45CC(C2C5O)[N+]3(C)C1O` (stereo not shown) [Beispiel 16], the inhibition at 50 µg/mL in data set [2] (dose 50 µg/ml) stood at 81%.
Regarding `CCC1C2CC3C4N(C)c5c(Br)cc(Br)cc5C45CC(C2C5O)[N+]3(CCC(C)C)C1O` (stereo not shown) [Beispiel 2, Nb-(3-Methylbutyl)-10,12-dibromajmalinium-chlorid], the ED150 in data set [1] (setting [4]) is 9 µmol/kg; in data set [1] (setting [5]), 11 µmol/kg; in data set [1] (setting [6]) it was 6 µmol/kg. In data set [3], the LD50 at 168 h amounted to 277 µmol/kg.
`CCC1C2CC3C4N(C)c5c(Br)cc(Br)cc5C45CC(C2C5O)[N+]3(C)C1O` (stereo not shown) [Beispiel 12, Nb-Methyl-10,12-dibromisosandwicinium-hydrogenfumarat]: the ED150 worked out at 49 µmol/kg in data set [1] (setting [4]), 58 µmol/kg in data set [1] (setting [5]) and 64 µmol/kg in data set [1] (setting [6]). Also, the inhibition at 100 µg/mL in data set [2] came to 83%. The LD50 at 168 h in data set [3] is 2400 µmol/kg.
On to `CCC1C2CC3C4N(C)c5c(Br)cc(Br)cc5C45CC(C2C5O)[N+]3(CCCN2CCOCC2)C1O` (stereo not shown) [Beispiel 8, Nb-(3-Morpholinopropyl)-10,12-dibromisoajmalinium-chlorid], for which the inhibition at 100 µg/mL in data set [2] stood at 100%.

For the origin of these results see patent publication EP0182271A2, “Nb-quaternary dibromo derivatives of ajmaline, isoajmaline, sandwicine and isosandwicine, pharmaceutical compositions containing them, intermediates and process for their preparation” (priority 1984, dated 1986).
